Five compounds from ChEMBL document CHEMBL3396988, “Structure-based design of inhibitors of coagulation factor XIa with novel P1 moieties” (Bioorg Med Chem Lett, 2015) can be followed below.

Broadly, the Ki is a measure of affinity in units of concentration, obtained from inhibition or displacement. By bioavailability is commonly meant dose-corrected exposure relative to a reference, in per cent. High values mean good availability, low ones poor availability. The term half-life denotes how long it takes for the measured level to halve. The low end stands for rapid decline, the high end for slow decline.

For one data set, the system named is Plasma. Put plainly: Anticoagulant activity in human plasma assessed as compound level causing 1.5 times increase in activated partial […] time. It counts as functional.
Data set [1] deals with T1, Coagulation factor XI (Homo sapiens, UniProt P03951). As to the kind of experiment: Inhibition of human coagulation factor 11a at 37 degC.
T1 sequence (P03951 19-387 limits assumed): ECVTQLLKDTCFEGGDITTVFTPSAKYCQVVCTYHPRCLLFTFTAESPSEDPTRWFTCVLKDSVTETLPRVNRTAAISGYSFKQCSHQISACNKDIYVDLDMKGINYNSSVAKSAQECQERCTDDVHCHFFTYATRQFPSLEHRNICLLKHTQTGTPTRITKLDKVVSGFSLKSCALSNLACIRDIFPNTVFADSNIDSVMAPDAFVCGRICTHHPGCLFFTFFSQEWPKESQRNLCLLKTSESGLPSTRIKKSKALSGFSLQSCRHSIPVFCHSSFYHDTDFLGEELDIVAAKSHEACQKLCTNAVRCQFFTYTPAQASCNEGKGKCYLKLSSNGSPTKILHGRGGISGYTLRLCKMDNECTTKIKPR
T1 sequence (P03951 388-625 limits assumed): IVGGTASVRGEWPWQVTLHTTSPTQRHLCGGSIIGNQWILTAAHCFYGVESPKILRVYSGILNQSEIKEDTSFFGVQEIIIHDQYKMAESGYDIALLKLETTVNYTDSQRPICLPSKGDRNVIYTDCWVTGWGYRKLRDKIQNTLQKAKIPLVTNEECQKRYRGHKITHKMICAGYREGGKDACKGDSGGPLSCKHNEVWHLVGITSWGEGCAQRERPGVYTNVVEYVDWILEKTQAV
The nature of data set [2]: Permeability of the compound at pH 7.4 by PAMPA method. It counts as ADME. The following applies: read-out: permeability. Background: In PAMPA a lipid-coated filter parts donor from acceptor wells.
In another data set the target is Plasminogen (Homo sapiens, UniProt P00747). Put plainly: Inhibition of plasmin (unknown origin).
Sequence of Plasminogen (P00747 97-580 limits assumed): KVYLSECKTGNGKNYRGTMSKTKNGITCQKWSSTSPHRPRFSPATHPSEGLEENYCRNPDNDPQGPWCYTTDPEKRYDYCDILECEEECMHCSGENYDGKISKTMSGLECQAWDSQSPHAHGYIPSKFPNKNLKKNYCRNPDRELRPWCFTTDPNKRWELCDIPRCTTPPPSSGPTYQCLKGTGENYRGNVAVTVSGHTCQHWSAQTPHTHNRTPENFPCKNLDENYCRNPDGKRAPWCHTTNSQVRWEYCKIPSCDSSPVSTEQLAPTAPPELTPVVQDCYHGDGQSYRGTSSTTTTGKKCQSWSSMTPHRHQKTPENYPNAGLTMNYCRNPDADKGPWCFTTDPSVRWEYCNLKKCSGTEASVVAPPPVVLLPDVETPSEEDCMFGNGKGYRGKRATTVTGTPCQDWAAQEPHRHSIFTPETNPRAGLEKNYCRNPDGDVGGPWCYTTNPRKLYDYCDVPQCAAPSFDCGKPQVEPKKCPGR
Sequence of Plasminogen (P00747 581-810 limits assumed): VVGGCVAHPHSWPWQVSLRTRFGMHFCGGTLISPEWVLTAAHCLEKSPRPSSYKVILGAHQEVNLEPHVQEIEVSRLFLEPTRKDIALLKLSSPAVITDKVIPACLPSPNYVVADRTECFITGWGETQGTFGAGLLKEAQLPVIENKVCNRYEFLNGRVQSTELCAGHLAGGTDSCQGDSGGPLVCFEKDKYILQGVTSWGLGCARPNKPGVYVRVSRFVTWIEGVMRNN
The nature of data set [3]: Oral bioavailability in dog at 1 mg/kg administered in discrete format. The following applies: in vivo. It counts as ADME, organism-based, Canis lupus familiaris.
For data set [4], the target named is Tissue-type plasminogen activator (Homo sapiens, UniProt P00750). As to the kind of experiment: Inhibition of TPA (unknown origin).
Sequence of Tissue-type plasminogen activator (P00750 whole entry): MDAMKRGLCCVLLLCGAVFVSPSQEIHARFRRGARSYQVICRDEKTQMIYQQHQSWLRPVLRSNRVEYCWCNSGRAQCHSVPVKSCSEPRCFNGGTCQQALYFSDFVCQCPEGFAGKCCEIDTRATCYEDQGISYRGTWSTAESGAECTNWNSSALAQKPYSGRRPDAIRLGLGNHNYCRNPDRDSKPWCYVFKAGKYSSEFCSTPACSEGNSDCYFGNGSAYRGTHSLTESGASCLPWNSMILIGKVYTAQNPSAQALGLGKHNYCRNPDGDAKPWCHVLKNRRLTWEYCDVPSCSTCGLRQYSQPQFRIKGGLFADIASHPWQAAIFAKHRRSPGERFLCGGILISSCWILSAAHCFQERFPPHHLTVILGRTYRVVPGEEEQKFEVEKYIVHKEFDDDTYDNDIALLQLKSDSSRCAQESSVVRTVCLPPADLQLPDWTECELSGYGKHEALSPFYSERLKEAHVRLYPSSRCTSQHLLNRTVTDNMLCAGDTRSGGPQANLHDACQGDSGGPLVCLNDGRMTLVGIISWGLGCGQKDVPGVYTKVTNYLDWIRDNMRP
The target of a further data set is Kallikrein-1 (Homo sapiens, UniProt P06870). As to the kind of experiment: Inhibition of tissue kallikrein (unknown origin).
Sequence of Kallikrein-1 (P06870 whole entry): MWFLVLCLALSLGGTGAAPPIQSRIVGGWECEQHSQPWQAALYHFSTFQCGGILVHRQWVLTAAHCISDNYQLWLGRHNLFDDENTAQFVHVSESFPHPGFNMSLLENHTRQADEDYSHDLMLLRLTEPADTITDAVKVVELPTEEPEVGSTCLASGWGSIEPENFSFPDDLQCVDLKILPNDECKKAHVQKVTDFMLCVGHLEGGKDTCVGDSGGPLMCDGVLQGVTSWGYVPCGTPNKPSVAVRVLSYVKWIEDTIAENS
Data set [5] is described as follows: Inhibition of chymotrypsin (unknown origin). Set-up: species or system Homo sapiens.
The nature of data set [6]: Volume of distribution at steady state in dog at 1 mg/kg, po or 0.4 mg/kg, iv administered in discrete format. Format: ADME, organism-based, Canis lupus familiaris. As to conditions: in vivo, read-out: Vdss.
A short description of data set [7]: Half life in dog at 1 mg/kg, po or 0.4 mg/kg, iv administered in discrete format. It counts as ADME, organism-based, Canis lupus familiaris. As to conditions: in vivo.
Data set [8] has as its target T1, Coagulation factor XI. Put plainly: Inhibition of human coagulation factor 11a at 25 degC.
Data set [9] can be described thus: Clearance in dog at 1 mg/kg, po or 0.4 mg/kg, iv administered in discrete format. It counts as ADME, organism-based, Canis lupus familiaris. As to conditions: in vivo.
The nature of data set [10]: Volume of distribution at steady state in dog at 0.5 mg/kg, po or 0.4 mg/kg, iv administered in cassette format. Format: ADME, organism-based, Canis lupus familiaris. As to conditions: in vivo, read-out: Vdss.
Data set [11] is described as follows: Half life in human liver microsomes. Format: ADME. (In general: Microsomes from liver hold many membrane-bound enzymes, among them those of drug oxidation.)
Data set [12] can be described thus: Half life in dog at 0.5 mg/kg, po or 0.4 mg/kg, iv administered in cassette format. As to conditions: in vivo. It counts as ADME, organism-based, Canis lupus familiaris.
Data set [13] is described as follows: Clearance in dog at 0.5 mg/kg, po or 0.4 mg/kg, iv administered in cassette format. Format: ADME, organism-based, Canis lupus familiaris. The following applies: in vivo.
The nature of data set [14]: Oral bioavailability in dog at 0.5 mg/kg administered in cassette format. The following applies: in vivo. It counts as ADME, organism-based, Canis lupus familiaris.
The next data set addresses Coagulation factor IX (Homo sapiens, UniProt P00740). As to the kind of experiment: Inhibition of coagulation factor 9a (unknown origin).
The next data set concerns the target Plasma kallikrein (Homo sapiens, UniProt P03952). Put plainly: Inhibition of plasma kallikrein (unknown origin).
In a further data set the target is Trypsin (Homo sapiens, UniProt P07477+P07478+P35030). Put plainly: Inhibition of human trypsin at 25 degC. It counts as protein assay.
Another data set deals with Prothrombin (Homo sapiens, UniProt P00734). As to the kind of experiment: Inhibition of thrombin (unknown origin).
In another data set the target is T2, Coagulation factor VII (Homo sapiens, UniProt P08709).
T2 sequence (P08709 whole entry): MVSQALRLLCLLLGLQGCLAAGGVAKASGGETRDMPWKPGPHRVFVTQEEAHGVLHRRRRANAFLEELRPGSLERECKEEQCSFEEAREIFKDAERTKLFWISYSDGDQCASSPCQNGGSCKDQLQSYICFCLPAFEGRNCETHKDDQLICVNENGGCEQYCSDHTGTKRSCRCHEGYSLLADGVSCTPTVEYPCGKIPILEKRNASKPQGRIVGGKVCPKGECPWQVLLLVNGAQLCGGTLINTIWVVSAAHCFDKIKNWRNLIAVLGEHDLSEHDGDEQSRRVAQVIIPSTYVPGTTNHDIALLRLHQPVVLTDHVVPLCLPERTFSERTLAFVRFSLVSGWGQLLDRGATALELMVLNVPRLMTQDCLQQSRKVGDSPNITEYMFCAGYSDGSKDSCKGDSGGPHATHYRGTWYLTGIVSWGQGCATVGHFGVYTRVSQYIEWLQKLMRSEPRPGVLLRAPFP
As to the kind of experiment: Inhibition of coagulation factor 7a (unknown origin).

For the next data set, the target named is Coagulation factor X (Homo sapiens, UniProt P00742). Put plainly: Inhibition of coagulation factor 10a (unknown origin).
Sequence of Coagulation factor X (P00742 41-179 limits assumed): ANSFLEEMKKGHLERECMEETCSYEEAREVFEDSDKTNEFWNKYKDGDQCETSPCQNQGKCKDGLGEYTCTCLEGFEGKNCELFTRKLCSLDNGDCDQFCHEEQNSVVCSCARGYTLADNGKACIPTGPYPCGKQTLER
Sequence of Coagulation factor X (P00742 235-488 limits assumed): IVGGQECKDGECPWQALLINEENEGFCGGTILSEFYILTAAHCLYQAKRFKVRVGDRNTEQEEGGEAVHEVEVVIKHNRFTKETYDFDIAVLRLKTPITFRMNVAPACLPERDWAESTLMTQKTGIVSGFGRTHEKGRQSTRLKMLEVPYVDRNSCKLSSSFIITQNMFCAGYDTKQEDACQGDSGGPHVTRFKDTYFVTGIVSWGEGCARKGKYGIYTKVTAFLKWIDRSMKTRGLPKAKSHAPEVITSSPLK

Molecules are shown by their SMILES.

Sequence of Coagulation factor IX (P00740 47-191 limits assumed): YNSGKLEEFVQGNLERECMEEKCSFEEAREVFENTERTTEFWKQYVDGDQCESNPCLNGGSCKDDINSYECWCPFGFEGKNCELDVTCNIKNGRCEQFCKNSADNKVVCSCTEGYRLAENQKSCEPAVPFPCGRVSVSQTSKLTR
Sequence of Coagulation factor IX (P00740 227-461 limits assumed): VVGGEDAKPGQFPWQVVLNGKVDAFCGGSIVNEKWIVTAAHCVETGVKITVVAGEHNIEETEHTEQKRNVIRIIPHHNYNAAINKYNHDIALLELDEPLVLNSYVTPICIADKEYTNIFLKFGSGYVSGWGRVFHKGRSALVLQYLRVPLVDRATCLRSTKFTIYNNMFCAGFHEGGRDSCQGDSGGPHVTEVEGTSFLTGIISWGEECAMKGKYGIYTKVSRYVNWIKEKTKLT
Sequence of Plasma kallikrein (P03952 20-390 limits assumed): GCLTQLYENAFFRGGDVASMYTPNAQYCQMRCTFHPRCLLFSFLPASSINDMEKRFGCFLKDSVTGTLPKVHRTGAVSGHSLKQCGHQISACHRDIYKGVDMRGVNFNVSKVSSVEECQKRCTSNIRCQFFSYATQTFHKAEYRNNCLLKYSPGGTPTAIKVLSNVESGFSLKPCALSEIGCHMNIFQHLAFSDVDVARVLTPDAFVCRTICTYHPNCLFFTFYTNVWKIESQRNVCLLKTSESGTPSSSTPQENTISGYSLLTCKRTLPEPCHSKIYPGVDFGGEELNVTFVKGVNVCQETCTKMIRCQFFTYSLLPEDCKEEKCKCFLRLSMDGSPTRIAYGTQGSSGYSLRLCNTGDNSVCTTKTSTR
Sequence of Plasma kallikrein (P03952 391-638 limits assumed): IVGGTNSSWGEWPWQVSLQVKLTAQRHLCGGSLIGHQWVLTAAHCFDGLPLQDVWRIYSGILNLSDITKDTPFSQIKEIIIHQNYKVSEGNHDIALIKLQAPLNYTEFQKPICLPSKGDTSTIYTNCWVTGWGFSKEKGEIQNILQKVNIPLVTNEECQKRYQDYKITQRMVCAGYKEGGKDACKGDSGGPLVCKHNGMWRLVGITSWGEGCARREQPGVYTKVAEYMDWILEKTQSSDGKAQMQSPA

Consider `Nc1n[nH]c2cc(-c3c[nH]c([C@H](Cc4ccccc4)NC(=O)/C=C/c4cc(Cl)ccc4-n4cnnn4)n3)ccc12`, for which, in the data set on Plasma, the Activity stood at 4 µM. Moreover, affinity on Coagulation factor XI [1] was put at a Ki of 0.005 µM.

For `NC[C@H]1CC[C@H](C(=O)N[C@@H](Cc2ccccc2)c2nc(-c3ccc4c(N)n[nH]c4c3)c(Cl)[nH]2)CC1`, in [2], the Papp was 0.03 ×10⁻⁶ cm/s. Further, the Ki is 8.4 µM at Plasminogen; over 22 µM in data set [4]; 0.65 µM at Kallikrein-1; over 20.8 µM in [5]; 0.00031 µM on Coagulation factor XI [8]. The bioavailability in data set [3] amounted to 3.6%. Further, the Vd in data set [6] came out at 0.92 L/kg. The compound further had a half-life in data set [7] of 1.88 h. The same compound showed a clearance in data set [9] of 11.2 mL/min/kg.

`COC(=O)Nc1ccc(-c2nc([C@H](Cc3ccccc3)NC(=O)/C=C/c3cc(Cl)ccc3-n3cnnn3)[nH]c2Cl)cc1`: the Activity in the data set with Plasma was found to be 5.3 µM. In data set [10], the Vd is 1.6 L/kg. The half-life in data set [11] is 0.55 h; in data set [12] it was 3.1 h. On Coagulation factor XI [8], this compound yielded a Ki of 0.0027 µM. The same compound showed a clearance in [13] of 9 mL/min/kg. In [14], the bioavailability amounted to 3%.

Consider `COC(=O)Nc1ccc(-c2c[nH]c([C@H](Cc3ccccc3)NC(=O)/C=C/c3cc(Cl)ccc3-n3cnnn3)n2)cc1`, for which the inhibition constant Ki was over 60 µM at Coagulation factor IX; over 41 µM at Plasminogen; 0.24 µM on Plasma kallikrein; over 6.2 µM at Trypsin; 17 µM in data set [4]; over 15 µM on Prothrombin. In addition, the Ki at Kallikrein-1 was over 30 µM; on Coagulation factor VII it was over 13 µM; in data set [5], 1.3 µM; at Coagulation factor X it was 1.5 µM; on Coagulation factor XI [8], 0.0067 µM. Besides, in the data set on Plasma, the Activity came to 8.6 µM. For the same compound, in [10], the Vd came out at 3.4 L/kg. Further, the half-life in [12] was 2.4 h. For the same compound, the bioavailability in data set [14] is 10.4%.

`Nc1n[nH]c2cc(-c3nc([C@H](Cc4ccccc4)NC(=O)/C=C/c4cc(Cl)ccc4-n4cnnn4)[nH]c3Cl)ccc12`: the inhibition constant Ki at Coagulation factor IX was over 35 µM; on Plasminogen it was over 24 µM; on Plasma kallikrein it was 0.041 µM; on Trypsin it was over 6.2 µM; in [4], 19 µM; on Prothrombin it was over 13 µM. Further, the Ki was 1.2 µM at Kallikrein-1; over 13 µM at Coagulation factor VII; 0.66 µM in [5]; over 1 µM on Coagulation factor X; 0.0012 µM at Coagulation factor XI [8]. The Activity with Plasma was found to be 3 µM. Moreover, the Vd in data set [10] came to 0.8 L/kg. The compound further gave a half-life in [12] of 2.2 h. In data set [13], this compound displayed a clearance of 16 mL/min/kg. This compound gave a bioavailability in [14] of 0%.
